According to patent US9708331B2, “Metabotrophic glutamate receptor 5 modulators and methods of use thereof” (SUNOVION PHARMACEUTICALS INC., priority 2011, dated 2017):

Tests used:
[1] = target: T1, mGluR5 (Homo sapiens, UniProt P41594); assay: mGluR5 PAM EC50 (positive allosteric modulator potency); assay type: cell-based
[2] = target: T1, mGluR5; assay: mGluR5 fold shift at a fixed compound concentration; assay type: cell-based

T1 sequence (P41594 21-1212): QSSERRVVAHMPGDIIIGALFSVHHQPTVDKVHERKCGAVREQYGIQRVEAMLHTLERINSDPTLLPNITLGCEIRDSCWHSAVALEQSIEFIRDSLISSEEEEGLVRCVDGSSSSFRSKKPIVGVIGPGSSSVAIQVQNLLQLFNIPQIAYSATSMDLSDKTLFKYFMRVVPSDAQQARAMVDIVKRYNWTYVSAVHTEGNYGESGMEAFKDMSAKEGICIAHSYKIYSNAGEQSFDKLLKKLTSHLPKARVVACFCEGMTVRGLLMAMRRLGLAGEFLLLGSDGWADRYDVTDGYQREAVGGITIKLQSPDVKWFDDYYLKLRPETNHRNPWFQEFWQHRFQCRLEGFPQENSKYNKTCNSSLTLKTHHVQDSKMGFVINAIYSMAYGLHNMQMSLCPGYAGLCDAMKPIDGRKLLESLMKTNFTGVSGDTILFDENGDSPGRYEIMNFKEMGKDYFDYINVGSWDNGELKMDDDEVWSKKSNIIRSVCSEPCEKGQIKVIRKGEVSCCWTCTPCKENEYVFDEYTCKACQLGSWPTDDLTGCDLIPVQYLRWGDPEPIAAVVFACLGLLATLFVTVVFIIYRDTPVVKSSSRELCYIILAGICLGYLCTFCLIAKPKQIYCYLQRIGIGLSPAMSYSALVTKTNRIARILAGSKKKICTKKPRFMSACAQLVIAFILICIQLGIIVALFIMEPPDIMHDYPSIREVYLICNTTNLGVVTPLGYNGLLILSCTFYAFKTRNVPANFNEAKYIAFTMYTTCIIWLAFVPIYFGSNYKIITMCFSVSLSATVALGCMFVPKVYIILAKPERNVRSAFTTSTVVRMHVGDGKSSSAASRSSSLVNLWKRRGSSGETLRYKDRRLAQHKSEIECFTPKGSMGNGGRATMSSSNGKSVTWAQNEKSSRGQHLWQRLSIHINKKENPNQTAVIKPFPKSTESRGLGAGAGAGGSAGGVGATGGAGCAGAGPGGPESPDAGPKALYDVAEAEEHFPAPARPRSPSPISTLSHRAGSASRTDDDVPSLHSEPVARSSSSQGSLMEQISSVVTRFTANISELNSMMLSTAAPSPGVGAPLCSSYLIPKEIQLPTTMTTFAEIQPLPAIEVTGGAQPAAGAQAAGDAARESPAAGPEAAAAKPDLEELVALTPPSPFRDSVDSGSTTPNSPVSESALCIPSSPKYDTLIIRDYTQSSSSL

EC50 [1] [µM] | Fold shift at 1 μM [2] | Fold shift at 10 μM [2] | Compound
< 0.01 | +++ (+++>3) | – | CC12Cc3nc4cc(C#Cc5ccccn5)ccc4c(=O)n3CC1C2 (stereo not drawn) [Example 2.98, 1a-methyl-5-(pyridin-2-ylethynyl)-1a,2,10,10a-tetrahydrocyclopropa[4,5]pyrido [2,1-b]quinazolin-8(1H)-one]
0.1 to 0.3 | + (+ is between 1.5 and 1.9) | – | CC1(C)CCn2c(nc3cc(C(=O)Nc4ccccn4)ccc3c2=O)C1 [Example 4.11, 7,7-dimethyl-11-oxo-N-(pyridin-2-yl)-7,8,9,11-tetrahydro-6H-pyrido[2,1-b]quinazoline-3-carboxamide]
0.03 to 0.1 | ++ (++ is between 2.0 and 2.9) | – | CC1(C)CCc2nc3cc(C#Cc4cccnn4)ccc3c(=O)n2C1 [Example 2.105, 8,8-dimethyl-3-(pyridazin-3-ylethynyl)-8,9-dihydro-6H-pyrido[2,1-b]quinazolin-11(7H)-one]
0.03 to 0.1 | – | +++ (+++>3) | COC1(C)CCc2nc3cc(C#Cc4ccccn4)ccc3c(=O)n2CC1 (single isomer, unassigned) [Example 3.4a]
0.01 to 0.03 | +++ (+++>3) | – | O=c1c2ccc(C#Cc3ccccn3)cc2nc2n1CC1(CC2)COC1 [Example 2.58, 3′-(pyridin-2-ylethynyl)-6′,7′-dihydrospiro[oxetane-3,8′-pyrido[2,1-b]quinazolin]-11′(9′H)-one]
0.01 to 0.03 | +++ (+++>3) | – | COCC1(C)CCc2nc3cc(C#Cc4ccccn4)ccc3c(=O)n2C1 (stereo not drawn) [Example 2.97, 8-(methoxymethyl)-8-methyl-3-(pyridin-2-ylethynyl)-8,9-dihydro-6H-pyrido[2,1-b]quinazolin-11(7H)-one]

Continued, compound first:

Compound | EC50 [1] [µM] | Fold shift at 1 μM [2] | Fold shift at 10 μM [2]
Cc1cccc(C#Cc2ccc3c(=O)n4c(nc3c2)CCC(C)(C)C4)c1 [Example 2.44, 8,8-dimethyl-3-(m-tolylethynyl)-8,9-dihydro-6H-pyrido[2,1-b]quinazolin-11(7H)-one] | < 0.01 | +++ (+++>3) | –
COC(C)(C)C1Cc2nc3cc(C#Cc4ccccn4)ccc3c(=O)n2C1 (stereo not drawn) [Example 1.4, 2-(2-methoxypropan-2-yl)-6-(pyridin-2-ylethynyl)-2,3-dihydropyrrolo[2,1-b]quinazolin-9(1H)-one] | 0.01 to 0.03 | +++ (+++>3) | –
O=c1c2ccc(C#Cc3ccccn3)cc2nc2n1C1CCC2C1 (single isomer, unassigned) [Example 2.9a] | 0.01 to 0.03 | + (+ is between 1.5 and 1.9) | –
COC1(C)CCc2nc3cc(C#Cc4ccccn4)ccc3c(=O)n2C1 (single isomer, unassigned) [Example 2.8b] | 0.03 to 0.1 | +++ (+++>3) | –
O=c1c2ccc(C#Cc3ccccn3)cc2nc2n1CCC1CC21 (single isomer, unassigned) [Example 2.10a] | 0.03 to 0.1 | ++ (++ is between 2.0 and 2.9) | –
O=c1c2ccc(C#Cc3ccccn3)cc2nc2n1CC(C(F)(F)F)C2 (single isomer, unassigned) [Example 1.8a] | 0.01 to 0.03 | +++ (+++>3) | –
CC1(C)CCc2nc3cc(C#Cc4ccccc4)ccc3c(=O)n2C1 [Example 2.37, 8,8-dimethyl-3-(phenylethynyl)-8,9-dihydro-6H-pyrido[2,1-b]quinazolin-11(7H)-one] | < 0.01 | ++ (++ is between 2.0 and 2.9) | –
CC1(C)CCc2nc3cc(C#Cc4cccc(C#N)c4)ccc3c(=O)n2C1 [Example 2.45, 3-((8,8-dimethyl-11-oxo-7,8,9,11-tetrahydro-6H-pyrido[2,1-b]quinazolin-3-yl)ethynyl)benzonitrile] | 0.01 to 0.03 | ++ (++ is between 2.0 and 2.9) | –
COC1(C)CCc2nc3cc(C#Cc4ccccn4)ccc3c(=O)n2C1 (single isomer, unassigned) [Example 2.8a] | 0.1 to 0.3 | – | ++ (++ is between 2.0 and 2.9)
